# Test results as given in patent US20170190705A1, “Compositions and Methods for Inhibiting BMP” (THE BRIGHAM AND WOMAN'S HOSPITAL, INC., priority 2014, published 2017).
# Key:
# Format in all cases: biochemical
# [1] = target: BRK (Homo sapiens, UniProt Q13882); test: Kinome profiling BRK; conditions: read-out: Inhibitory activity BRK; for inhibition at 0.1 µM: 100 nM
# Experimental: (§1) . The kinome-wide selectivity was determined following the methods previously reported by Mohedas et al., ACS Chem Biol 2013, 8, 1291-1302 and Sanvitale et al., PLoS One 2013, 8, e62721.
# [2] = target: BRAF (Homo sapiens, UniProt P15056); test: Kinome profiling BRAF; conditions: read-out: Inhibitory activity BRAF; for inhibition at 0.1 µM: 100 nM
# Chain of BRAF (P15056 whole entry): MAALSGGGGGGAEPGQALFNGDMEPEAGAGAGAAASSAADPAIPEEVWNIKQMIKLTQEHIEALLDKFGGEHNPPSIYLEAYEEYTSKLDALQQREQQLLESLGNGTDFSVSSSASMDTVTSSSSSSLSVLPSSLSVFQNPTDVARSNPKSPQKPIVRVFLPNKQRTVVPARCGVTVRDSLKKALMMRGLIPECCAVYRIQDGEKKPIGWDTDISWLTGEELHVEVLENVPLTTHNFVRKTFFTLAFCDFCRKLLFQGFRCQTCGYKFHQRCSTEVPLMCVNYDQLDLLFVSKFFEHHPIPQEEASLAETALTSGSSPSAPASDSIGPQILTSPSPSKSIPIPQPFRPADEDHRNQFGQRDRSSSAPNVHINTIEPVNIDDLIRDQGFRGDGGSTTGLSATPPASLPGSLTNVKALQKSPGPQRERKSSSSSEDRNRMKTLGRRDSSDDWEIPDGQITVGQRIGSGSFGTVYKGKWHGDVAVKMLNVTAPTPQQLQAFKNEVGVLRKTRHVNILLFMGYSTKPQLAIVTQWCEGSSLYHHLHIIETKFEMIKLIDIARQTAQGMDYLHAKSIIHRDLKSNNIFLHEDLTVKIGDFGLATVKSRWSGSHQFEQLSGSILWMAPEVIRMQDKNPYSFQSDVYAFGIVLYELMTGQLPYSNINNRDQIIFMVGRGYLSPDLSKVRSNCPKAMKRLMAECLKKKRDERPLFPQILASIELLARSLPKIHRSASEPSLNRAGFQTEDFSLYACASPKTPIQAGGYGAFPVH
# Experimental: as §1
# [3] = target: FGFR3 (Homo sapiens, UniProt P22607); test: Kinome profiling FGFR3; conditions: read-out: Inhibitory activity FGFR3; for inhibition at 0.1 µM: 100 nM
# Experimental: as §1
# [4] = target: FER (Homo sapiens, UniProt P16591); test: Kinome profiling FER; conditions: read-out: Inhibitory activity FER; for inhibition at 0.1 µM: 100 nM
# Chain of FER (P16591 whole entry): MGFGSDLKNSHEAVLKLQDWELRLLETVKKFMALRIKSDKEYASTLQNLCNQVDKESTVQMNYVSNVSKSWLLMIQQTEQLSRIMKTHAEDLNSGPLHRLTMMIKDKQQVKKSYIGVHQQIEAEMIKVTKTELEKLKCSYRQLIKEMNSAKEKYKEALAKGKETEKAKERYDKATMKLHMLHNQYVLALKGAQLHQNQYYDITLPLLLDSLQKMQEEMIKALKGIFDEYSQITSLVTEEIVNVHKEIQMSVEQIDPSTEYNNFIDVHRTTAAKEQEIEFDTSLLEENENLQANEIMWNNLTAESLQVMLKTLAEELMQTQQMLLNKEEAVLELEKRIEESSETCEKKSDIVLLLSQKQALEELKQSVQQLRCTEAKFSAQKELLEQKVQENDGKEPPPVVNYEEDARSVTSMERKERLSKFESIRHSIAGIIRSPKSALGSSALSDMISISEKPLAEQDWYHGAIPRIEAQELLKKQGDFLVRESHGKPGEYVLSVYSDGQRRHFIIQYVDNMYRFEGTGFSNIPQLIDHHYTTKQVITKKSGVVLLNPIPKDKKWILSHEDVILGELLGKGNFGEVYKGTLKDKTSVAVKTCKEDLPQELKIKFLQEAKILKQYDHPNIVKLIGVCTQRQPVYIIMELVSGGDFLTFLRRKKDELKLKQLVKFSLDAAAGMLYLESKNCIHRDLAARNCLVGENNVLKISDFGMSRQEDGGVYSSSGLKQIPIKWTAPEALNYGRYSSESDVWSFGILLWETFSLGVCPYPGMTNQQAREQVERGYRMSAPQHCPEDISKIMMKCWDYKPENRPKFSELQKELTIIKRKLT
# Experimental: as §1
# [5] = target: PAK5 (Homo sapiens, UniProt Q9P286); test: Kinome profiling PAK5; conditions: read-out: Inhibitory activity PAK5; for inhibition at 0.1 µM: 100 nM
# Experimental: as §1
# [6] = target: T1, MST2 (Homo sapiens, UniProt Q13188); test: Kinome profiling MST2; conditions: read-out: Inhibitory activity MST2; for inhibition at 0.1 µM: 100 nM
# T1 sequence (Q13188 1-491): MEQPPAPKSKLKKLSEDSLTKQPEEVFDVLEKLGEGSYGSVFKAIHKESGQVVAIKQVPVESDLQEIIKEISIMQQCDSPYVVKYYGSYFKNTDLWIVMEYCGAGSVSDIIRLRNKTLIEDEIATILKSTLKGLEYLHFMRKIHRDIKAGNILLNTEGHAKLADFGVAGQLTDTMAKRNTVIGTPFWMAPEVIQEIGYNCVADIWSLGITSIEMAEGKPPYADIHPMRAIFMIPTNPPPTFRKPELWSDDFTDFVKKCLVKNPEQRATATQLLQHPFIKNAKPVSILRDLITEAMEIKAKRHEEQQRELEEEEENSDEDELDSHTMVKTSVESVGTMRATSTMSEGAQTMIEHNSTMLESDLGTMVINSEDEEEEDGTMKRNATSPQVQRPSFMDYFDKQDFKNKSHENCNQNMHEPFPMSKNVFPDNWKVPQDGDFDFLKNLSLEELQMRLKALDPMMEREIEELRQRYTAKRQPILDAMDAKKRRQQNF
# Experimental: as §1
# [7] = target: T2, DCAMKL2 (Homo sapiens, UniProt Q8N568); test: Kinome profiling DCAMKL2; conditions: read-out: Inhibitory activity DCAMKL2; for inhibition at 0.1 µM: 100 nM
# T2 sequence (Q8N568 1-766): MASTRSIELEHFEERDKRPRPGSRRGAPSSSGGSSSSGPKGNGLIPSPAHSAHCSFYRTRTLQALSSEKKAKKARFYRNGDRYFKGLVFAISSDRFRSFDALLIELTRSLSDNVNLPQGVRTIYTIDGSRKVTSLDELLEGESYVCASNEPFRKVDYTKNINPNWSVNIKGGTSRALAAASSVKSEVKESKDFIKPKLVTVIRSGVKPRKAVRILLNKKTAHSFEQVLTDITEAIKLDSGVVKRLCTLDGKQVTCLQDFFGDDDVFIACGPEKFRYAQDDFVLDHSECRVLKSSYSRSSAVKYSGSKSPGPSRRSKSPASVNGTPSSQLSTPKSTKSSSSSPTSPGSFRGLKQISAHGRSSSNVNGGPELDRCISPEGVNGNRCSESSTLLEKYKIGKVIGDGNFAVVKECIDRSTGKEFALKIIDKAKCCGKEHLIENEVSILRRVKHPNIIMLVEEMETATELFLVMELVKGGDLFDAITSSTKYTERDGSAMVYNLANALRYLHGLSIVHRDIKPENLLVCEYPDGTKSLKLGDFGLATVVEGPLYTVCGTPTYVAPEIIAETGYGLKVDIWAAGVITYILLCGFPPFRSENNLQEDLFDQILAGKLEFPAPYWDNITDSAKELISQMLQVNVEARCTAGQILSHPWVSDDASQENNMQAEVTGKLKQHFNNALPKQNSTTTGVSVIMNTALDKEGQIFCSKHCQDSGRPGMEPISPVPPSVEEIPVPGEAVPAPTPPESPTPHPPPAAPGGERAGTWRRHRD
# Experimental: as §1
# [8] = target: CAMK2δ (Homo sapiens, UniProt Q13557); test: Kinome profiling CAMK2δ; conditions: read-out: Inhibitory activity CAMK2δ; for inhibition at 0.1 µM: 100 nM
# Chain of CAMK2δ (Q13557 whole entry): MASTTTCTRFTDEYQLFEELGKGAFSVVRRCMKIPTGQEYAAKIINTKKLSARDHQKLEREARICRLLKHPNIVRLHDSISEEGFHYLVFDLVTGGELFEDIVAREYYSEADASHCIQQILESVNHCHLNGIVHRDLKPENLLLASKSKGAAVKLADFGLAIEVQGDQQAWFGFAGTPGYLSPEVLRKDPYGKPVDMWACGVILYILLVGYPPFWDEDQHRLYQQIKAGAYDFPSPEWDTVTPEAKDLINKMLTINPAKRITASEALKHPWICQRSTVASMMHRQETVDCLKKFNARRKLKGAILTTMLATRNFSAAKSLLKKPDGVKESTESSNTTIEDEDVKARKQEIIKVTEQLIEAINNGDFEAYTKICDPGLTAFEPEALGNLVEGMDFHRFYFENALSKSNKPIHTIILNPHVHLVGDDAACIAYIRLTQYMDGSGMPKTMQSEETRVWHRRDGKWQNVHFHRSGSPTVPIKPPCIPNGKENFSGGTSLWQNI
# Experimental: as §1
# [9] = target: HIPK1 (Homo sapiens, UniProt Q86Z02); test: Kinome profiling HIPK1; conditions: read-out: Inhibitory activity HIPK1; for inhibition at 0.1 µM: 100 nM
# Chain of HIPK1 (Q86Z02 whole entry): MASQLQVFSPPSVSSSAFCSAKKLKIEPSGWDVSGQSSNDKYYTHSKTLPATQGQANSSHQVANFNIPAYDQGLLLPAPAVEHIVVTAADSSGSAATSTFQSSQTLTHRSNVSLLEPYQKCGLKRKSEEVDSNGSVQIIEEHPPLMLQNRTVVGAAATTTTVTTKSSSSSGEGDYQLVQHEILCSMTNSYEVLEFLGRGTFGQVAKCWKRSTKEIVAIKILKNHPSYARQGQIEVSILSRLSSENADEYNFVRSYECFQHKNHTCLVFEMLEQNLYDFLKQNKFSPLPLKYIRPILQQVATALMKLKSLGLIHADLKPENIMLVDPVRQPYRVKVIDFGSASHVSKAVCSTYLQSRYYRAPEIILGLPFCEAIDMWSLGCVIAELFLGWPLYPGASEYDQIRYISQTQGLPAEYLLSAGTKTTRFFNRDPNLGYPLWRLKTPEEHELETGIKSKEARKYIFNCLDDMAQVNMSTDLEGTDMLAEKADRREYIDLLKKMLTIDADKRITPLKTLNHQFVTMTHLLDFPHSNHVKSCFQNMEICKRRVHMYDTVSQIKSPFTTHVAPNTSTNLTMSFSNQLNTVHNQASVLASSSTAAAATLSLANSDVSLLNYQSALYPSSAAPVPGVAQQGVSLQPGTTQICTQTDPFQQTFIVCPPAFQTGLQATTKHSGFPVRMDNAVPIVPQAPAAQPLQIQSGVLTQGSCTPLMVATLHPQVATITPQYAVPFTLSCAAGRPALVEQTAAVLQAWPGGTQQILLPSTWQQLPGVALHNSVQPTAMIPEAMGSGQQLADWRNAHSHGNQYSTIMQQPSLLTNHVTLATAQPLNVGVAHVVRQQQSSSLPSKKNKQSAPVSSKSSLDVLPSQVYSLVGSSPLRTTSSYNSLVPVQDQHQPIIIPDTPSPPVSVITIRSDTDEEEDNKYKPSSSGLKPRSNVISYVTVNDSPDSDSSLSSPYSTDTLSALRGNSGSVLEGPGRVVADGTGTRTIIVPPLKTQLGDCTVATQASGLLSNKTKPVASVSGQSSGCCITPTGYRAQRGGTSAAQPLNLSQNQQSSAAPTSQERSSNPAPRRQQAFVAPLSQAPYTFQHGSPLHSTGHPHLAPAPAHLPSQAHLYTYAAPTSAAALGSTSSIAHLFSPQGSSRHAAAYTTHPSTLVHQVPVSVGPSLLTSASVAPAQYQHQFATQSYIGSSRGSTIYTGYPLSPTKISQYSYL
# Experimental: as §1
# [10] = target: CDK2/cyclinA (Homo sapiens, UniProt P24941); test: Kinome profiling CDK2/cyclinA; conditions: read-out: Inhibitory activity CDK2/cyclinA; for inhibition at 0.1 µM: 100 nM
# Experimental: as §1
# [11] = target: SRPK1 (Homo sapiens, UniProt Q96SB4); test: Kinome profiling SRPK1; conditions: read-out: Inhibitory activity SRPK1; for inhibition at 0.1 µM: 100 nM
# Chain of SRPK1 (Q96SB4 whole entry): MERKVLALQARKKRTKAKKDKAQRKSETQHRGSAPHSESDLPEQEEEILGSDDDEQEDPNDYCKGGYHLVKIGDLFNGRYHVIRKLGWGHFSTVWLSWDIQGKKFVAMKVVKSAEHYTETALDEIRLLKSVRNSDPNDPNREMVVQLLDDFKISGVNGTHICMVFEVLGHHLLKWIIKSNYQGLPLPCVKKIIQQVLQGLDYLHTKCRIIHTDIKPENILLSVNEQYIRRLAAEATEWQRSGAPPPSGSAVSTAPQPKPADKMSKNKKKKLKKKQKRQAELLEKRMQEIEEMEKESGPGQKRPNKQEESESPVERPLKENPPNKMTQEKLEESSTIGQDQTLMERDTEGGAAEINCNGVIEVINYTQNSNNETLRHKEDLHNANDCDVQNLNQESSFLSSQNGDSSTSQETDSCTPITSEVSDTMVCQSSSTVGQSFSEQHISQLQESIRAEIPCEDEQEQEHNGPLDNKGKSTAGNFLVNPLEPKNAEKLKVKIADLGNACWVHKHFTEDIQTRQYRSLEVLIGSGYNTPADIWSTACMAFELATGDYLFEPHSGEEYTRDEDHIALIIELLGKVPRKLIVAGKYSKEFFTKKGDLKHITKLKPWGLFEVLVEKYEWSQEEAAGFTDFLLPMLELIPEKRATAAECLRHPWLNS
# Experimental: as §1
# [12] = target: PIM3 (Homo sapiens, UniProt Q86V86); test: Kinome profiling PIM3; conditions: read-out: Inhibitory activity PIM3; for inhibition at 0.1 µM: 100 nM
# Experimental: as §1
# Chain of BRK (Q13882 whole entry): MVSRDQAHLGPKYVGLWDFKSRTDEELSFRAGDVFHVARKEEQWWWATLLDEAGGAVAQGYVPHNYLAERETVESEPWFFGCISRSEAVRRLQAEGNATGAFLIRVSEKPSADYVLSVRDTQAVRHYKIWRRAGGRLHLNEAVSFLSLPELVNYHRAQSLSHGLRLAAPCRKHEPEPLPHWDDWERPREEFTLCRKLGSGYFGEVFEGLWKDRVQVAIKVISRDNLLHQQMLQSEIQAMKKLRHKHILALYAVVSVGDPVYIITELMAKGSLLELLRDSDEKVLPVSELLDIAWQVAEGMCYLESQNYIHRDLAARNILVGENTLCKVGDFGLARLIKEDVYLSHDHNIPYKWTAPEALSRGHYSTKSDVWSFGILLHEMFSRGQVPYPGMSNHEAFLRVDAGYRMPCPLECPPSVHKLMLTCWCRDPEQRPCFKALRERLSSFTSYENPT
SMILES,inhibition at 0.1 µM [1] [%],inhibition at 1 µM [1] [%],inhibition at 0.1 µM [2] [%],inhibition at 1 µM [2] [%],inhibition at 0.1 µM [3] [%],inhibition at 1 µM [3] [%],inhibition at 0.1 µM [4] [%],inhibition at 1 µM [4] [%],inhibition at 0.1 µM [5] [%],inhibition at 1 µM [5] [%],inhibition at 0.1 µM [6] [%],inhibition at 1 µM [6] [%],inhibition at 0.1 µM [7] [%],inhibition at 1 µM [7] [%],inhibition at 0.1 µM [8] [%],inhibition at 1 µM [8] [%],inhibition at 0.1 µM [9] [%],inhibition at 1 µM [9] [%],inhibition at 0.1 µM [10] [%],inhibition at 1 µM [10] [%],further results
"COc1cc(-c2cc(-c3ccc(N4CCNCC4)cc3)cnc2C)cc(OC)c1OC [Compound 10, 1-(4-(6-methyl-5-(3,4,5-trimethoxyphenyl)pyridin-3-yl)phenyl)piperazine]",7,36,0,1,0,0,3,3,1,1,0,1,1,0,1,1,1,1,4,1,inhibition at 0.1 µM [11]: 2%; inhibition at 1 µM [11]: 2%; inhibition at 0.1 µM [12]: 3%; inhibition at 1 µM [12]: 4%
"COc1cc(-c2cc(-c3ccc(N4CCNCC4)cc3)cnc2N)cc(OC)c1OC [Compound 15, 5-(4-(piperazin-1-yl)phenyl)-3-(3,4,5-trimethoxyphenyl)pyridin-2-amine]",43,92,8,27,2,6,0,6,9,6,3,4,-1,3,1,3,1,2,1,2,inhibition at 0.1 µM [11]: 1%; inhibition at 1 µM [11]: -1%; inhibition at 0.1 µM [12]: 1%; inhibition at 1 µM [12]: -1%
